Data on 4 compounds can be found in patent publication US8026207B2, “Peptides and compositions for inhibiting fungal growth” (Japan Science and Technology Agency, priority 2005, dated 2011).

The subject of one data set is human erythrocytes. In words: Toxicity Test 1: hemolytic test using erythrocytes. The format is cell-based. The note with it: peptides 0.325-100 μM, FIG. 3. The procedure: A final concentration of the peptides was adjusted in a range of 0.325-100 μM, and the test was done using human erythrocytes in accordance with Nikawa H, Fukushima H, Makihira S, Hamada T, Samaranayake L P. Fungicidal effect of three new synthetic cationic peptides against Candida albicans. Oral Dis. 2004 July; 10(4): 221-8.

A further data set has as its system Candida. The note with it: cited from earlier work.
The next data set concerns C. albicans. In words: Antifungal Test 1: survival of Candida by colony count after incubation with peptide. The class given is cell-based. The settings on record: for concentration showing a lethal ratio of 100%: Candida strain from oral cavity of a patient, 90 min at 37° C., colony count after 48 h. The protocol:
The antifungal action against Candida was examined in order to confirm the antifungal effect of the present peptide. The peptide was synthesized by a conventional amino acid synthesis method using a peptide synthesizer manufactured by Shimazu Co. of Japan. The strain of Candida was isolated and provided from oral cavity of a patient in Glasgowden Hospital. The antifungal effect of the present peptide was evaluated using the above Candida strain according to the method of Edgerton et al (1998). Twenty μl of the suspension of C. albicans (1.8×10^5 cfu/mL) was mixed with the same amount of a peptide solution (0.325 μM-25 μM of the peptide concentration) and incubated for 90 min at 37° C. The reaction was stopped by adding Yeast Nitrogen Base medium. The resulting mixture was spread onto Sabouraud dextrose agar plate and incubated for 48 h at 37° C. The number of living strains was determined by colony count and survival percentage (%) was calculated in comparison with the number of colony (100%) obtained using 1 mM phosphate buffer as a control instead of the peptide solution.
The antifungal effect (∘) of the present peptide (JH8194Y) is compared with that of JH8194 (*) , His5:Histatin 5 ([…]:♦)(SEQ ID NO: 6), LFG: Bovine lactoferrin ([…]: ▪)fSEQ ID NO: 7), LFB frag (FKCRRWQWRMKKLG:▴)(SEQ ID NO: 8), and Dhvar 4: Histatin analog developed by Holland ACTA (KRLFKKLLFSLRKY: x)(SEQ ID NO: 9). The ordinate and abscissa axes of FIG. 1 indicate percentage survived of Candida, and the concentration of peptide, respectively.

Ends that are not written are not given here.

In the case of `C[C@@H]1[C@H](O)[C@@H](C)/C=C/C=C/C=C/C=C/C=C/C=C/C=C/[C@H](O[C@@H]2O[C@H](C)[C@@H](O)[C@H](N)[C@@H]2O)C[C@@H]2O[C@](O)(C[C@@H](O)C[C@@H](O)[C@H](O)CC[C@@H](O)C[C@@H](O)CC(=O)O[C@H]1C)C[C@H](O)[C@H]2C(=O)O` [amphotericin B], in the data set with human erythrocytes, the concentration eliciting hemolysis is no less than 5 µM. The “Minimal Fungicidal Concentration” value in the data set on Candida is 5 µM.

Turning to “DSHEKRHHGYKRKFHEKHHSHRGY (Synthetic peptide Histatin 5) [basic antifungal peptide of the Histatin family existing in saliva]”, the “concentration showing a lethal ratio of 100%” value with C. albicans is greater than 50 µM.

For KRLFRRWQWRMKKY, the “concentration showing a lethal ratio of 100%” value with C. albicans was 2.5 µM. Further, in the data set with C. albicans (FIG. 1), the “antifungal effect (comparison in words)” value is “much stronger antifungal effect than lactoferrin and lactoferrin B”.

For the compound KRLFRRWQWRY, the “concentration showing a lethal ratio of 100%” value in the data set on C. albicans was 1.25 µM.
